In data set [1] the test system is Rats. In words: Serum ASS, CPS-1, SULT2A1 and ALT levels after repeated MDMA injections (Ecstasy liver injury). It counts as in vivo, rat. The note with it: for Serum ASS compared to control serum levels / Serum SULT2A1 compared to control serum levels: i.p.; for Serum ASS compared to control serum levels: 10 mg/kg injections at 1.5 hr intervals. As for the experimental part: Serum arginosuccinate synthetase (ASS), carbamoylphosphate synthase-1 (CPS-1) and sulfur transferase isoform A1 (SULT2A1) levels were measured after repeated injections of 10 mg/kg of methylenedioxyacetamine (MDMA) at 1.5 hr intervals.

In data set [2] the test system is Rats. Conditions: Western blot. As for the experimental part:
The analysis shown in Table 1, is performed by Western blot using antibody available through various sources. Typically, 25 μg protein are loaded with two identical sets of 5 samples, separated in 4-20% polyacrylamide gel mini-slabs, and transferred onto PVDF membrane. The membrane is cut in 2 pieces, blocked, probed with two different antibodies, visualized using ECL Plus Kit (Pierce, Inc) and scanned. The membranes are stripped using stripping buffer and re-probed with other two antibody. After visualizing the bands with EDCL Plus Kit and scanning, membranes are stripped again, probed with aII-spectrin antibody and developed using alkaline phosphatase detection method. For accurate assessment of molecular mass of developed proteins, two sets of protein standards are added and developed simultaneously (Magic Markers, Invitrogen, Inc).
Blood is collected from rat heart at the end of experimental procedures. Plasma is obtained from K-EDTA preserved blood by centrifugation. 20 μl of plasma or serum is mixed with 180 μl of RIPA buffer (with proteases inhibitors), vortexed, incubated on ice for 30 min and centrifuged. Supernatants are removed, aliquots mixed with sample buffer 1:1, heated and loaded onto gel.

Data set [3] concerns Rats. In words: Plasma ASS and ALT accumulation after carbon tetrachloride injection (chlorinated hydrocarbon liver injury). The note with it: for Plasma ASS increase relative to control (FIG. 30A): rat model; for Plasma ALT accumulation / Plasma ASS increase compared to controls: rats; for Plasma ASS increase compared to controls: 0.5 ml/kg CCL4 in vegetable oil. It counts as in vivo, rat. As for the experimental part:
Rats (n=6) were injected with 0.5 ml/kg of carbon tetrachloride (CCL4) in vegetable oil. Plasma arginosuccinate synthetase (ASS) and alanine transaminase (ALT) accumulation was measured 1 hr and 24 hr after injection. ASS increased over 15-fold compared to controls after 1 hr and over 50-fold compared to controls after 24 hr (p<0.0001), as shown in FIG. 30A.

Here are results for three compounds from patent publication US8048638B2, “Biomarkers of liver injury” (priority 2005, dated 2011).

Turning to `CNC(C)Cc1ccc2c(c1)OCO2` (stereo not drawn) [MDMA, methylenedioxyacetamine], the “Serum ASS compared to control serum levels” value is listed as “significant increase” in the data set on Rats [1] (total 20 mg/kg, p<0.01) and “significant increase” in the data set on Rats [1] (total 40 mg/kg, p<0.001). In addition, the “Serum SULT2A1 compared to control serum levels” value is listed as “significant increase” in the data set on Rats [1] (total 20 mg/kg, p<0.001) and “significant increase” in the data set on Rats [1] (total 40 mg/kg, p<0.0001). In addition, in the data set on Rats [1] (repeated i.p. injection, total 40 mg/kg, 24 hr after last injection, PAGE), the “Serum carbamoylphosphate synthase-1 (CPS-1) levels” value was “increased levels”. In addition, the “Alanine transferase (ALT)” value in the data set with Rats [1] (repeated i.p. injections of 10 mg/kg) is on record as “No increase”.

Take `CCO` [alcohol]: the ALT in plasma entry with Rats [2] (chronic alcohol rats) is “increased”. Further, in the data set on Rats [2] (rats chronically treated with alcohol), the GST-BB in plasma entry is “significant increase”. Besides, the “Intact ASS protein (46 kDa) in plasma” value in the data set with Rats [2] (rats with chronic alcoholic administration) is on record as “absent”.

For the compound `ClC(Cl)(Cl)Cl` [carbon tetrachloride], the results for the “Plasma ASS increase relative to control (FIG. 30A)” value in the data set on Rats [3] (1 hr after injection) and with Rats [3] (24 hr post injection) were 15 times and 50 times, respectively. For the same compound, the “Plasma ALT accumulation” value with Rats [3] (0.5 ml/kg CCL4, 1 hr after injection) is reported as “did not increase significantly”; with Rats [3] (0.5 ml/kg CCL4, 24 hr after injection, p=0.041), “significant increase”. Also, the “Plasma ASS increase compared to controls” value in the data set with Rats [3] (1 hr after injection) is listed as “over 15 fold”; in the data set on Rats [3] (24 hr after injection, p<0.0001), “over 50 fold”.
